Laboratory results published in PubChem BioAssay (NCI).
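Compound exposure: 48 hours, 5 concentrations, 96-well plates. TGI denotes the concentration required for complete inhibition of growth.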

Legend:
Assay in all cases: NCI anticancer screen, dose series, 48 h
786-0 renal = system: 786-0 renal
A498 renal = system: A498 renal
A549 NSCLC = system: A549 NSCLC
ACHN renal = system: ACHN renal
BT-549 breast = system: BT-549 breast
CAKI-1 renal = system: CAKI-1 renal
COLO 205 colon = system: COLO 205 colon
DU-145 prostate = system: DU-145 prostate
EKVX NSCLC = system: EKVX NSCLC
HCT-116 colon = system: HCT-116 colon
HCT-15 colon = system: HCT-15 colon
HL-60(TB) leukemia = system: HL-60(TB) leukemia
HOP-62 NSCLC = system: HOP-62 NSCLC
HOP-92 NSCLC = system: HOP-92 NSCLC
HS 578T breast = system: HS 578T breast
HT29 colon = system: HT29 colon
IGROV1 ovarian = system: IGROV1 ovarian
K-562 leukemia = system: K-562 leukemia
KM12 colon = system: KM12 colon
LOX IMVI melanoma = system: LOX IMVI melanoma
M14 melanoma = system: M14 melanoma
MALME-3M melanoma = system: MALME-3M melanoma
MCF7 breast = system: MCF7 breast
MDA-MB-231 breast = system: MDA-MB-231 breast
MDA-MB-435 = system: MDA-MB-435
MDA-N = system: MDA-N
MOLT-4 leukemia = system: MOLT-4 leukemia
NCI-H226 lung = system: NCI-H226 lung
NCI-H23 lung = system: NCI-H23 lung
NCI-H522 lung = system: NCI-H522 lung
NCI/ADR-RES ovarian = system: NCI/ADR-RES ovarian
OVCAR-3 ovarian = system: OVCAR-3 ovarian
OVCAR-4 ovarian = system: OVCAR-4 ovarian
OVCAR-5 ovarian = system: OVCAR-5 ovarian
OVCAR-8 ovarian = system: OVCAR-8 ovarian
PC-3 prostate = system: PC-3 prostate
RPMI-8226 leukemia = system: RPMI-8226 leukemia
RXF 393 renal = system: RXF 393 renal
SF-268 CNS = system: SF-268 CNS
SF-295 CNS = system: SF-295 CNS
SK-MEL-2 melanoma = system: SK-MEL-2 melanoma
SK-MEL-28 melanoma = system: SK-MEL-28 melanoma
SK-MEL-5 melanoma = system: SK-MEL-5 melanoma
SK-OV-3 ovarian = system: SK-OV-3 ovarian
SN12C renal = system: SN12C renal
SNB-19 CNS = system: SNB-19 CNS
SR leukemia = system: SR leukemia
SW-620 colon = system: SW-620 colon
T-47D breast = system: T-47D breast
TK-10 renal = system: TK-10 renal
U251 CNS = system: U251 CNS
UACC-257 melanoma = system: UACC-257 melanoma
UACC-62 melanoma = system: UACC-62 melanoma
UO-31 renal = system: UO-31 renal
CCRF-CEM leukemia = system: CCRF-CEM leukemia
HCC-2998 colon = system: HCC-2998 colon
NCI-H460 lung = system: NCI-H460 lung
SF-539 CNS = system: SF-539 CNS

With `CC(C)(C)OCC1NC(=O)[C@@H]2Cc3c([nH]c4ccccc34)C(C3CCCCC3)N2C1=O` (some centres undefined) the TGI (786-0 renal) was 50.2 µM, the TGI (A498 renal) was > 100 µM and the TGI (A549 NSCLC) was > 100 µM. It also gave a TGI (ACHN renal) of 68.6 µM, a TGI (BT-549 breast) of 56.8 µM and a TGI (CAKI-1 renal) of 53.8 µM. The TGI (COLO 205 colon) was 51.4 µM, the TGI (DU-145 prostate) was > 100 µM and the TGI (EKVX NSCLC) was 67.9 µM. For the same compound, the TGI (HCT-116 colon) was 30.5 µM, the TGI (HCT-15 colon) was 69 µM and the TGI (HL-60(TB) leukemia) was 52.1 µM. For the same compound, the TGI (HOP-62 NSCLC) was 39.6 µM, the TGI (HOP-92 NSCLC) was 55.7 µM and the TGI (HS 578T breast) was 51.8 µM. The TGI (HT29 colon) was 35.7 µM, the TGI (IGROV1 ovarian) was 57.7 µM and the TGI (K-562 leukemia) was 61.6 µM. For the same compound, the TGI (KM12 colon) was 44 µM, the TGI (LOX IMVI melanoma) was 33.3 µM and the TGI (M14 melanoma) was 42 µM. For the same compound, the TGI (MALME-3M melanoma) was 42.8 µM, the TGI (MCF7 breast) was > 100 µM and the TGI (MDA-MB-231 breast) was 35.1 µM. For the same compound, the TGI (MDA-MB-435) was 35.7 µM, the TGI (MDA-N) was 37.4 µM and the TGI (MOLT-4 leukemia) was 49.6 µM. The TGI (NCI-H226 lung) was 74.9 µM, the TGI (NCI-H23 lung) was 57.8 µM and the TGI (NCI-H522 lung) was 31.4 µM. For the same compound, the TGI (NCI/ADR-RES ovarian) was 57.5 µM, the TGI (OVCAR-3 ovarian) was 33.8 µM and the TGI (OVCAR-4 ovarian) was > 100 µM. The TGI (OVCAR-5 ovarian) was 50.8 µM, the TGI (OVCAR-8 ovarian) was 87.3 µM and the TGI (PC-3 prostate) was 46.3 µM. It also gave a TGI (RPMI-8226 leukemia) of 49 µM, a TGI (RXF 393 renal) of 38.4 µM and a TGI (SF-268 CNS) of 95.6 µM. It also gave a TGI (SF-295 CNS) of 40.8 µM, a TGI (SK-MEL-2 melanoma) of 40.8 µM and a TGI (SK-MEL-28 melanoma) of 77.6 µM. The TGI (SK-MEL-5 melanoma) was 29 µM, the TGI (SK-OV-3 ovarian) was > 100 µM and the TGI (SN12C renal) was 43.1 µM. For the same compound, the TGI (SNB-19 CNS) was > 100 µM, the TGI (SR leukemia) was 45.4 µM and the TGI (SW-620 colon) was 85.5 µM. The TGI (T-47D breast) was 71.1 µM, the TGI (TK-10 renal) was 67.6 µM and the TGI (U251 CNS) was 38.5 µM. For the same compound, the TGI (UACC-257 melanoma) was 41 µM, the TGI (UACC-62 melanoma) was 31.2 µM and the TGI (UO-31 renal) was 98.8 µM.
For `O=C(NNc1cn[nH]c(=O)n1)c1cccc2nc3ccccc3nc12`, the TGI (786-0 renal) was > 100 µM, the TGI (A498 renal) was > 100 µM and the TGI (A549 NSCLC) was > 100 µM. For the same compound, the TGI (ACHN renal) was 60.1 µM, the TGI (BT-549 breast) was > 100 µM and the TGI (CAKI-1 renal) was > 100 µM. For the same compound, the TGI (CCRF-CEM leukemia) was > 100 µM, the TGI (COLO 205 colon) was > 100 µM and the TGI (DU-145 prostate) was > 100 µM. For the same compound, the TGI (EKVX NSCLC) was > 100 µM, the TGI (HCC-2998 colon) was > 100 µM and the TGI (HCT-116 colon) was > 100 µM. For the same compound, the TGI (HCT-15 colon) was > 100 µM, the TGI (HL-60(TB) leukemia) was > 100 µM and the TGI (HOP-92 NSCLC) was > 100 µM. For the same compound, the TGI (HS 578T breast) was > 100 µM, the TGI (HT29 colon) was > 100 µM and the TGI (IGROV1 ovarian) was > 100 µM. For the same compound, the TGI (K-562 leukemia) was > 100 µM, the TGI (KM12 colon) was > 100 µM and the TGI (LOX IMVI melanoma) was > 100 µM. For the same compound, the TGI (M14 melanoma) was > 100 µM, the TGI (MALME-3M melanoma) was > 100 µM and the TGI (MCF7 breast) was > 100 µM. The TGI (MDA-MB-231 breast) was 84.3 µM, the TGI (MDA-MB-435) was > 100 µM and the TGI (MDA-N) was > 100 µM. The TGI (MOLT-4 leukemia) was 27.9 µM, the TGI (NCI-H226 lung) was > 100 µM and the TGI (NCI-H23 lung) was > 100 µM. The TGI (NCI-H460 lung) was > 100 µM, the TGI (NCI/ADR-RES ovarian) was > 100 µM and the TGI (OVCAR-3 ovarian) was > 100 µM. For the same compound, the TGI (OVCAR-4 ovarian) was > 100 µM, the TGI (OVCAR-5 ovarian) was > 100 µM and the TGI (OVCAR-8 ovarian) was > 100 µM. The TGI (PC-3 prostate) was > 100 µM, the TGI (RPMI-8226 leukemia) was > 100 µM and the TGI (RXF 393 renal) was 56.8 µM. For the same compound, the TGI (SF-268 CNS) was > 100 µM, the TGI (SF-295 CNS) was > 100 µM and the TGI (SF-539 CNS) was > 100 µM. For the same compound, the TGI (SK-MEL-2 melanoma) was > 100 µM, the TGI (SK-MEL-28 melanoma) was > 100 µM and the TGI (SK-MEL-5 melanoma) was > 100 µM. The TGI (SK-OV-3 ovarian) was > 100 µM, the TGI (SN12C renal) was > 100 µM and the TGI (SNB-19 CNS) was > 100 µM. For the same compound, the TGI (SR leukemia) was 26.5 µM, the TGI (SW-620 colon) was > 100 µM and the TGI (T-47D breast) was > 100 µM. For the same compound, the TGI (TK-10 renal) was 67 µM, the TGI (U251 CNS) was > 100 µM and the TGI (UACC-257 melanoma) was > 100 µM. The TGI (UACC-62 melanoma) was > 100 µM.
